The test system of data set [1] is Sprague-Dawley rats, retinal ischemia/reperfusion (I/R) injury. Nature of the data set: Histological (H&E) evaluation of I/R-induced retinal injury (14 days). Format: in vivo. As to conditions: rat, 14 days after I/R injury. The procedure: (§1) Experimental procedures were approved by the Mackay Memorial Hospital Review Board (Taiwan, R.O.C.). All surgeries were performed under aseptic conditions. Adult 10-week-old male Sprague-Dawley rats (initial body weight=312±11 g) were anesthetized by an intraperitoneal injection of xylazine (10 mg/kg). Peptide was dissolved in 0.85% normal saline to 1 mM and delivered by the subconjunctival injection of 100 μL peptide through a 31-Gneedle with a micro-syringe before the induction of I/R. Normal saline was as a vehicle control. Rat I/R was performed after peptide or vehicle injection for 4 h. Pupils were dilated with 0.5% tropicamide and 0.5% phenylephrine. Body temperature was maintained at 37° C. using a heating blanket After dilation of the pupil, the anterior chamber of the right eye was cannulated with a 27-gauge needle connected to a physiological saline reservoir. The intraocular pressure (IOP) was raised to 110 mmHg by keeping the reservoir at 150 cm above the eye, and retinal ischemia was confirmed by observing whitening of the iris and the loss of the red reflex of the retina. After 90 min of ischemia, the cannulating needle was withdrawn and the IOP was returned to normal pressure, resulting in recovery of the blood supply from the retinal artery and reperfusion injury induced. The reperfusion was evident by the return of the red reflex. Corneal analgesia was achieved using 1 or 2 drops of 0.4% oxybuprocaine hydrochloride, and Ofloxacin ophthalmic gel (0.3%) was applied topically to the eye before and after the procedure. Only the right eye was used in all experiments. A sham procedure was performed at left eye served as an intra-animal control.
Rats (n=6 in each group) were euthanized using an overdose of pentobarbital (intravenously 100 mg/kg of bodyweight) at 14 days after the I/R injury, the eyeballs were marked at the 12 o'clock position of the cornea with silk suture, and then enucleated and fixed in 4% paraformaldehyde(PFA) at 4° C. for 24 h. After fixation, the anterior segment was removed, and the posterior eyeball containing the optic disc was dehydrated in a graded ethanol series and embedded in paraffin. […] To quantify the degree of I/R damage in the retina, we measured the overall central retinal thicknesses (OT, between the GCL to ONL), the inner nuclear layer (INL), and the outer nuclear layer (ONL). The number of cells in the ganglion cell layer (GCL) was calculated using the linear cell density (cells per 200 μm). Three sections per eye were averaged and the mean of six eyes was recorded as the representative value for each group.

A further data set deals with ARPE-19 cells. Nature of the data set: 4-HNE induced apoptosis of ARPE-19 cells (TUNEL staining). As to conditions: 20 μM peptide pretreatment, 25 μM 4-HNE 24 h. It counts as cell-based, human. Here is the method:
FIG. 6. The protective effect of the 6-mer dS on ARPE-19 cells against 4-HNE induced apoptosis. Cells were deprived of serum for 24 h and then pretreated with 20 μM 6-mer dS or solvent prior to exposed with 25 μM 4-HNE for additional 24 h. Apoptosis was determined by TUNEL staining (green dots) and counter-stained with Hoechst 33258 (blue dots). (A) Representative graphs from three independent experiments are shown. (B) The percentage of cell death was quantified by dividing the number of TUNEL-positive cells to a population of 2000 counted cells per condition. TUNEL, terminal deoxynucleotidyl transferase-mediated dUTP nick end-labeling. ^aP<0.00003 versus solvent-treated cells. ^bP<0.0006 versus solvent/4-HNE-treated cells.
Reference is made to FIG. 6, which depicts the protective effect of 6-mer dS or 6-mer dE on 4-hydroxy-2-nonenal (4-HNE) induced apoptosis of ARPE-19 cells. 4-hydroxy-2-nonenal (4-HNE) is a product of lipid oxidation, and is also considered as one of the most formidable reactive aldehydes capable of forming adduct with various cellular targets, particularly proteins involve in redox signaling.

Data set [2] concerns Sprague-Dawley rats, retinal ischemia/reperfusion (I/R) injury. In words: Retinal vasculature analysis (acellular capillaries) 14 days after I/R injury. It counts as in vivo. The following applies: rat. The procedure:
as §1
Rats (n=6 in each group) were euthanized using an overdose of pentobarbital at 14 days after I/R injury, the eyeballs were fixed with 4% PFA for overnight at 4° C. […] Ten sections per eye were averaged and the mean of six eyes was recorded as the representative value for each group.

From patent US12221494B2, “Short synthetic peptides and their uses for treating retinal degenerative diseases and/or tissue injuries” (MacKay Memorial Hospital, priority 2019, dated 2025) come the findings set out here.

As to “NH2-(D-Ser)-Leu-Gly-Ala-Glu-Gln-COOH (SLGAEQ; HELM PEPTIDE1{[dS].L.G.A.E.Q}$$$$V2.0; SMILES CC(C)C[C@H](NC(=O)[C@H](N)CO)C(=O)NCC(=O)N[C@@H](C)C(=O)N[C@@H](CCC(=O)O)C(=O)N[C@@H](CCC(N)=O)C(=O)O) [6-mer dS]”, the “INL Thickness” value in data set [1] (H&E, Control 70.7 ± 2.4, Vehicle + I/R 51.6 ± 0.8) worked out at 71.3 ± 7.5 μm. Besides, the “ONL Thickness” value in data set [1] (H&E, Control 139.8 ± 4.2, Vehicle + I/R 125.8 ± 4.5) is 133.4 ± 7.7 μm. Moreover, in data set [1] (H&E, Control 326.2 ± 9.4, Vehicle + I/R 260.8 ± 7.1), the “Total Thickness (From GCL to INL)” value turned out to be 308.9 ± 11.2 μm. Besides, the “overall retinal thickness, in words” value in data set [1] (single subconjunctival injection) is on record as “improved the overall retinal thickness to a level similar to that in the shame control group”. Also, the “4-HNE induced apoptosis (TUNEL), in words” value with ARPE-19 cells was “could suppress 4-HNE induced apoptosis”. The “number of degenerate capillaries, in words” value in data set [2] (14 days after I/R injury) was “The number of degenerate capillaries was reduced”. In data set [2] (14 days post-ischemia, Vehicle + I/R 7.2 ± 0.9), the “Number of acellilar capillaries” value is reported as 2.3 ± 0.7 /mm^2. Besides, the “cytotoxic effect on retinal vasculature” value in data set [2] (sham testing in contralateral eye) is given as “had no cytotoxic effect on retinal vasculature”.
